Experimental data from paper PMC8004991, “The Interaction of the Flavonoid Fisetin with Human Glutathione Transferase A1-1” (Metabolites, 2021).

Biological target: T1, human glutathione transferase A1-1 (hGSTA1-1) (Homo sapiens, UniProt P08263)
T1 construct: gene GSTA1
T1 sequence (P08263 2-222): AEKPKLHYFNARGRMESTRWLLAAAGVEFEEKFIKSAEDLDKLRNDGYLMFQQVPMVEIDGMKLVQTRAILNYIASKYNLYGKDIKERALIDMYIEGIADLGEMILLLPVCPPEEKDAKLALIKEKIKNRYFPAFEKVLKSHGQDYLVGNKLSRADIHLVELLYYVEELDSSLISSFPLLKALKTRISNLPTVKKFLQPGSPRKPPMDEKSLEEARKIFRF
Assay: CDNB/GSH conjugation assay with purified recombinant hGSTA1-1; IC50 and steady-state inhibition kinetics (Ki […] vs GSH, […] vs CDNB)
Format: biochemical
Source text: Fisetin appears to be a strong inhibitor for hGSTA1-1

For `O=c1c(O)c(-c2ccc(O)c(O)c2)oc2cc(O)ccc12` [fisetin], the IC50 was 1.2 ± 0.1 µM.
